Reference: paper PMC6151383 (Molecules : A Journal of Synthetic Chemistry and Natural …, 2017)
In brackets after ≈: the same amount, converted by molar mass. Read-outs that look alike come from different tables or passages of the source.

Assays:
Candida tropicalis 156 = assay: Antifungal microdilution broth MIC, C. tropicalis; assay type: cell-based
[1] = tested on: ESBL-positive Klebsiella pneumoniae J 14368/08
Candida sp. = assay: Selectivity index for Candida sp. (IC50 HepG2/MIC); assay type: cell-based; conditions: all Candida species
[2] = tested on: Staphylococcus aureus CCM 4516/08; assay: Antibacterial microdilution broth MIC, S. aureus; assay type: cell-based; conditions: Staphylococcus aureus, CCM4516; 48 h incubation; read-out: MIC SA 48 h
[3] = tested on: Pseudomonas aeruginosa CCM 1961; assay: Antibacterial microdilution broth MIC, P. aeruginosa; assay type: cell-based; conditions: Pseudomonas aeruginosa, CCM1961; 48 h incubation; read-out: MIC PA 48 h
Candida krusei E28 = assay: Antifungal microdilution broth MIC, C. krusei; assay type: cell-based; conditions: Pichia kudriavzevii, E28; 48 h incubation; read-out: MIC CK 48 h
[4] = tested on: Mycobacterium avium 330/88; assay: In vitro antimycobacterial MIC, M. avium; assay type: cell-based
[5] = tested on: Enterococcus faecalis J 14365/08; assay: Antibacterial microdilution broth MIC, E. faecalis; assay type: cell-based; conditions: Enterococcus faecalis, J14365/08; 48 h incubation; read-out: MIC EF 48 h
M. kansasii 6509/96 = assay: In vitro antimycobacterial MIC, M. kansasii clinical isolate; assay type: cell-based; conditions: Mycobacterium kansasii
[6] = tested on: Aspergillus fumigatus 231; assay: Antifungal microdilution broth MIC, A. fumigatus; assay type: cell-based
[7] = tested on: Candida albicans ATCC 44859; assay: Antifungal microdilution broth MIC, C. albicans; assay type: cell-based
[8] = tested on: Lichtheimia corymbifera 272; assay: Antifungal microdilution broth MIC, L. corymbifera; assay type: cell-based; conditions: Lichtheimia corymbifera, 272; 48 h incubation; read-out: MIC LC 48 h
[9] = tested on: Staphylococcus epidermidis H 6966/08; assay: Antibacterial microdilution broth MIC, S. epidermidis; assay type: cell-based; conditions: Staphylococcus epidermidis
Trichosporon asahii 1188 = assay: Antifungal microdilution broth MIC, T. asahii; assay type: cell-based
[10] = tested on: Mycobacterium tuberculosis 331/88 (H37Rv); assay: In vitro antimycobacterial MIC, M. tuberculosis; assay type: cell-based
[11] = tested on: Klebsiella pneumoniae D 11750/08
[12] = tested on: Escherichia coli CCM 4517; assay: Antibacterial microdilution broth MIC, E. coli; assay type: cell-based; conditions: Escherichia coli, CCM4517; 48 h incubation; read-out: MIC EC 48 h
[13] = tested on: Mycobacterium kansasii 235/80; assay: In vitro antimycobacterial MIC, M. kansasii 235/80; assay type: cell-based
[14] = tested on: Trichophyton interdigitale 445; assay: Antifungal microdilution broth MIC, T. interdigitale; assay type: cell-based; conditions: Trichophyton interdigitale; for SI for TI: SI = IC50 (HepG2)/MIC; for MIC: 445
Candida glabrata 20/I = assay: Antifungal microdilution broth MIC, C. glabrata; assay type: cell-based; conditions: Nakaseomyces glabratus
[15] = Candida tropicalis, 156, 48 h incubation, read-out: MIC CT 48 h
[16] = 330/88, 336 h, 14 d incubation, read-out: MIC M. avium 330/88 14 d
[17] = 330/88, 504 h, 21 d incubation, read-out: MIC M. avium 330/88 21 d
[18] = 6509/96, 168 h, 7 d incubation, read-out: MIC M. kansasii 6509/96 7 d
[19] = 6509/96, 336 h, 14 d incubation, read-out: MIC M. kansasii 6509/96 14 d
[20] = 6509/96, 504 h, 21 d incubation, read-out: MIC M. kansasii 6509/96 21 d
[21] = Aspergillus fumigatus, 231, 48 h incubation, read-out: MIC AF 48 h
[22] = ATCC44859, 48 h incubation, read-out: MIC CA 48 h
[23] = H6966/08, 48 h incubation, read-out: MIC SE 48 h
[24] = Trichosporon asahii, 1188, 48 h incubation, read-out: MIC TA 48 h
[25] = 336 h, 14 d incubation, read-out: MIC Mtb. 331/88 14 d
[26] = 504 h, 21 d incubation, read-out: MIC Mtb. 331/88 21 d
[27] = 235/80, 168 h, 7 d incubation, read-out: MIC M. kansasii 235/80 7 d
[28] = 235/80, 336 h, 14 d incubation, read-out: MIC M. kansasii 235/80 14 d
[29] = 235/80, 504 h, 21 d incubation, read-out: MIC M. kansasii 235/80 21 d
[30] = 72 h incubation, read-out: MIC TI 72 h
[31] = 120 h incubation, read-out: MIC TI 120 h
[32] = 48 h incubation, read-out: MIC CG 48 h

| Structure (SMILES) | MIC KP-E 24 h [1] [µM] | MIC KP-E 48 h [1] [µM] | MIC [2] [µM] | MIC [3] [µM] | MIC (Candida krusei E28) [µM] | MIC [4, 16] [µM] | MIC [4, 17] [µM] | MIC [5] [µM] | MIC (M. kansasii 6509/96; [18]) [µM] | MIC (M. kansasii 6509/96; [19]) [µM] | MIC (M. kansasii 6509/96; [20]) [µM] | MIC [8] [µM] | MIC [10, 25] [µM] | MIC [10, 26] [µM] | MIC KP 24 h [11] [µM] | MIC KP 48 h [11] [µM] | MIC [12] [µM] | MIC [13, 27] [µM] | MIC [13, 28] [µM] | MIC [13, 29] [µM] | further results |
| --- | --- | --- | --- | --- | --- | --- | --- | --- | --- | --- | --- | --- | --- | --- | --- | --- | --- | --- | --- | --- | --- |
| O=S(=O)(Nc1ncccn1)c1ccc(N=Cc2cc(F)ccc2O)cc1 [Compound 2b, 4-[(5-Fluoro-2-hydroxybenzylidene)amino]-N-(pyrimidin-2-yl)benzenesulfonamide] | >250 | >250 | > 250 | > 250 | > 250 | 500 (≈ 186 µg/mL) | 1000 (≈ 372 µg/mL) | > 250 | 125 (≈ 46.5 µg/mL) | 250 (≈ 93.1 µg/mL) | 250 (≈ 93.1 µg/mL) | > 250 | 125 (≈ 46.5 µg/mL) | 125 (≈ 46.5 µg/mL) | >250 | >250 | > 250 | 62.5 (≈ 23.3 µg/mL) | 125 (≈ 46.5 µg/mL) | 250 (≈ 93.1 µg/mL) | MIC (Candida tropicalis 156; [15]): > 250 µM; SI for Candida sp. (Candida sp.): inactive; MIC [6, 21]: > 250 µM; MIC [7, 22]: > 250 µM; MIC [9, 23]: > 250 µM; MIC (Trichosporon asahii 1188; [24]): > 250 µM; SI for TI [14]: inactive; MIC [14, 30]: > 250 µM; MIC [14, 31]: > 250 µM; MIC (Candida glabrata 20/I; [32]): > 250 µM |
| Cc1ccc(O)c(C=Nc2ccc(S(=O)(=O)Nc3ncccn3)cc2)c1 [Compound 2g, 4-[(2-Hydroxy-5-methylbenzylidene)amino]-N-(pyrimidin-2-yl)benzenesulfonamide] | >250 | >250 | > 250 | > 250 | > 500 | 500 (≈ 184 µg/mL) | 1000 (≈ 368 µg/mL) | > 250 | 62.5 (≈ 23 µg/mL) | 62.5 (≈ 23 µg/mL) | 125 (≈ 46.1 µg/mL) | > 500 | 125 (≈ 46.1 µg/mL) | 125 (≈ 46.1 µg/mL) | >250 | >250 | > 250 | 125 (≈ 46.1 µg/mL) | 125 (≈ 46.1 µg/mL) | 250 (≈ 92.1 µg/mL) | MIC (Candida tropicalis 156; [15]): > 500 µM; SI for Candida sp. (Candida sp.): inactive; MIC [6, 21]: > 500 µM; MIC [7, 22]: > 500 µM; MIC ([9]; H6966/08, 24 h, read-out: MIC SE 24 h): 125 µM (≈ 46.1 µg/mL); MIC ([9]; H6966/08, 48 h, read-out: MIC SE 48 h): 125 µM (≈ 46.1 µg/mL); MIC (Trichosporon asahii 1188; [24]): > 500 µM; SI for TI [14]: inactive; MIC [14, 30]: > 500 µM; MIC [14, 31]: > 500 µM; MIC (Candida glabrata 20/I; [32]): > 500 µM |
| O=S(=O)(Nc1ncccn1)c1ccc(N=Cc2cccc(Cl)c2O)cc1 [Compound 2l, 4-[(3-Chloro-2-hydroxybenzylidene)amino]-N-(pyrimidin-2-yl)benzenesulfonamide] | >500 | >500 | > 500 | > 500 | 250 (≈ 97.2 µg/mL) | 125 (≈ 48.6 µg/mL) | 250 (≈ 97.2 µg/mL) | > 500 | 16 (≈ 6.22 µg/mL) | 16 (≈ 6.22 µg/mL) | 32 (≈ 12.4 µg/mL) | > 500 | 32 (≈ 12.4 µg/mL) | 62.5 (≈ 24.3 µg/mL) | >500 | >500 | > 500 | 16 (≈ 6.22 µg/mL) | 32 (≈ 12.4 µg/mL) | 62.5 (≈ 24.3 µg/mL) | MIC (Candida tropicalis 156; Candida tropicalis, 156, 24 h, read-out: MIC CT 24 h): 125 µM (≈ 48.6 µg/mL); MIC (Candida tropicalis 156; Candida tropicalis, 156, 48 h, read-out: MIC CT 48 h): 125 µM (≈ 48.6 µg/mL); MIC [6, 21]: 250 µM (≈ 97.2 µg/mL); MIC ([7]; ATCC44859, 24 h, read-out: MIC CA 24 h): 62.5 µM (≈ 24.3 µg/mL); MIC ([7]; ATCC44859, 48 h, read-out: MIC CA 48 h): 62.5 µM (≈ 24.3 µg/mL); MIC [9, 23]: > 500 µM; MIC (Trichosporon asahii 1188; Trichosporon asahii, 1188, 24 h, read-out: MIC TA 24 h): 125 µM (≈ 48.6 µg/mL); MIC (Trichosporon asahii 1188; Trichosporon asahii, 1188, 48 h, read-out: MIC TA 48 h): 125 µM (≈ 48.6 µg/mL); MIC [14, 30]: 31.2 µM (≈ 12.2 µg/mL); MIC [14, 31]: 31.2 µM (≈ 12.2 µg/mL); MIC (Candida glabrata 20/I; 24 h, read-out: MIC CG 24 h): 125 µM (≈ 48.6 µg/mL); MIC (Candida glabrata 20/I; 48 h, read-out: MIC CG 48 h): 125 µM (≈ 48.6 µg/mL) |
| O=S(=O)(Nc1ncccn1)c1ccc(N=Cc2cc(Cl)cc(I)c2O)cc1 [Compound 2o, 4-[(5-Chloro-2-hydroxy-3-iodobenzylidene)amino]-N-(pyrimidin-2-yl)benzenesulfonamide] | 500 (≈ 257 µg/mL) | 500 (≈ 257 µg/mL) | 15.6 (≈ 8.04 µg/mL) | 500 (≈ 257 µg/mL) | 7.81 (≈ 4.02 µg/mL) | 500 (≈ 257 µg/mL) | 500 (≈ 257 µg/mL) | 250 (≈ 129 µg/mL) | 62.5 (≈ 32.2 µg/mL) | 125 (≈ 64.3 µg/mL) | 125 (≈ 64.3 µg/mL) | 250 (≈ 129 µg/mL) | 125 (≈ 64.3 µg/mL) | 125 (≈ 64.3 µg/mL) | 500 (≈ 257 µg/mL) | 500 (≈ 257 µg/mL) | 250 (≈ 129 µg/mL) | 125 (≈ 64.3 µg/mL) | 250 (≈ 129 µg/mL) | 250 (≈ 129 µg/mL) | MIC (Candida tropicalis 156; [15]): 7.81 µM (≈ 4.02 µg/mL); MIC ([6]; Aspergillus fumigatus, 231, 24 h, read-out: MIC AF 24 h): 62.5 µM (≈ 32.2 µg/mL); MIC ([6]; Aspergillus fumigatus, 231, 48 h, read-out: MIC AF 48 h): 62.5 µM (≈ 32.2 µg/mL); MIC [7, 22]: 7.81 µM (≈ 4.02 µg/mL); MIC [9, 23]: 31.2 µM (≈ 16.1 µg/mL); MIC (Trichosporon asahii 1188; [24]): 7.81 µM (≈ 4.02 µg/mL); MIC [14, 30]: 1.95 µM (≈ 1 µg/mL); MIC [14, 31]: 1.95 µM (≈ 1 µg/mL); MIC (Candida glabrata 20/I; [32]): 7.81 µM (≈ 4.02 µg/mL) |
| Nc1ccc(S(=O)(=O)Nc2ncccn2)cc1 [SDZ 1, sulfadiazine, reference compound] | >500 | >500 | > 500 | > 500 |  | 62.5 (≈ 15.6 µg/mL) | 62.5 (≈ 15.6 µg/mL) | > 500 | 8 (≈ 2 µg/mL) | 8 (≈ 2 µg/mL) | 8 (≈ 2 µg/mL) |  | 32 (≈ 8.01 µg/mL) | 62.5 (≈ 15.6 µg/mL) | >500 | >500 | > 500 | 16 (≈ 4 µg/mL) | 16 (≈ 4 µg/mL) | 32 (≈ 8.01 µg/mL) | SI for Candida sp. (Candida sp.): inactive; MIC [9, 23]: > 500 µM; SI for TI [14]: inactive |
